Results as given in PMC11223215, “Metronidazole Interaction with Cu^2+ and Zn^2+: Speciation Study in Aqueous Solution and Biological Activity Evaluation” (ACS Omega, 2024).
Values after ≈ are worked out from the molar mass of the structure shown. Like-named read-outs stand apart in the source and are kept apart here.

What was measured:
[1] = system: Trypanosoma cruzi Tulahuen CL2 amastigote stage; assay: In vitro activity against T. cruzi; format: cell-based; settings: T. cruzi Tulahuen CL2 amastigotes on MRC-5 cells, 7 days
Protocol: (§1) Briefly, S. aureus and E. coli were cultured in MHT (Mueller Hinton Broth) and maintained on TSA (Tryptone Soy Agar). T. cruzi, Tulahuen CL2 galactosidase strain (nifurtimox- sensitive), was maintained on MRC-5SV2 (human lung fibroblast) cells in MEM medium, supplemented with 200 mmol L^–1L-glutamine, 16.5 mmol L^–1 NaHCO3, and 5% inactivated fetal calf serum. The T. b. brucei Squib 427 strain (suramine-sensitive) and T. b. rhodesiense STIB-900 strain were maintained in Hirumi’s Modified Iscove’s medium-9 (HMI-9) medium, supplemented with 10% inactivated fetal calf serum. MRC-5SV2 cells were cultured in MEM + Earle’s salts-medium, supplemented with 2 mmol L^–1L-glutamine, 16.5 mmol L^–1 NaHCO3, and 5% inactivated fetal calf serum. All cultures were incubated at 37 °C under an atmosphere of 5% CO2.
The assay was performed at 37 °C under an atmosphere of 5% CO2 in sterile 96-well microtiter plates, each well containing 10 μL of the aqueous compound together with MRC-5 cell/parasite inoculum (190 μL; 4 × 10^3 cells/well + 4 × 10^4 parasites/well). The compounds were tested at 64, 16, 4, 1, and 0.25 μmol L^–1. Parasite growth was compared to that of untreated-infected controls and uninfected controls. After 7 days of incubation, parasite burdens were assessed after adding the substrate CPRG [chlorophenolred β-D-galactopyranoside; 50 μL/well of a solution of CPRG (15.2 mg); and Nonidet (250 μL) in PBS (100 mL)]. The sample was analyzed spectrophotometrically at 540 nm after 4 h. The results were expressed as % reduction in parasite burden compared to control wells, and an IC50 was calculated.

[2] = system: Trypanosoma brucei brucei Squib-427 strain, suramin-sensitive, trypomastigote stage; assay: In vitro activity against T. b. brucei; format: cell-based; settings: T. b. brucei Squib-427 trypomastigotes, 3 days, resazurin
Protocol: as §1
(§2) The assay was performed at 37 °C under an atmosphere of 5% CO2 in sterile 96-well microtiter plates, each well containing the aqueous compound (10 μL) dilution together with the parasite suspension [190 μL; 1.5 × 10^3 parasites/well (T. b. brucei) or 4 × 10^3 parasites/well (T. rhodesiense)]. The compounds were tested at 64, 16, 4, 1, and 0.25 μmol L^–1. Parasite growth was compared to untreated-infected controls and uninfected controls. After 3 days of incubation, parasite growth was assessed fluorimetrically after addition of resazurin [50 μL; 50 μg/mL in phosphate buffer] to each well. After 6 h (T. b. rhodesiense) or 24 h (T. b. brucei) at 37 °C, fluorescence was measured (λex 550 nm, λem 590 nm). The results were expressed as % reduction in parasite growth/viability compared to control wells, and an IC50 was calculated.

[3] = system: Trypanosoma brucei rhodesiense STIB900 strain, drug susceptible, trypomastigote stage; assay: In vitro activity against T. b. rhodesiense; format: cell-based; settings: T. b. rhodesiense STIB900 trypomastigotes, 3 days, resazurin
Protocol: as §1, §2

Staphylococcus aureus = assay: In vitro activity against S. aureus; format: cell-based; settings: resazurin
Protocol: as §1
(§3) The assays were performed at 37 °C in sterile 96-well microtiter plates, each well containing 10 μL of aqueous compound together with a bacterial/fungal/MRC-5 inoculum (190 μL; 5 × 10^3 CFU/mL). The compounds were tested at 64, 16, 4, 1, and 0.25 μ-mol L^–1. Bacterial/fungal/MRC-5 growth was compared to untreated-control wells (100% growth) and medium-control wells (0% cell growth). After 3 days of incubation, 50 μL of resazurin was added in each well. After 30 min at 37 °C, the fluorescence was measured at λex = 550 nm and λem = 590 nm. The results are expressed as % reduction in cell growth/viability compared to control wells, and IC50 values were determined.

Escherichia coli = assay: In vitro activity against E. coli; format: cell-based; settings: resazurin
Protocol: as §1, §3

[4] = system: Leishmania infantum (intracellular amastigotes); assay: In vitro activity against L. infantum; format: cell-based
Candida albicans = assay: In vitro activity against C. albicans; format: cell-based
Protocol: as §3

Aspergillus fumigatus = assay: In vitro activity against A. fumigatus; format: cell-based
Protocol: as §3

[5] = system: MRC-5 human fetal lung fibroblasts; assay: Cytotoxicity on MRC-5 cells; format: cell-based; settings: MRC-5 human fetal lung fibroblasts cytotoxicity
Protocol: as §3, with “Briefly, S. aureus and E. coli were cultured in MHT (Mueller Hinton Broth) and maintained on TSA (Tryptone Soy Agar). […] The T. b. brucei Squib 427 strain (suramine-sensitive) and T. b. rhodesiense STIB-900 strain were maintained in Hirumi’s Modified Iscove’s medium-9 (HMI-9) medium, supplemented with 10% inactivated fetal calf serum. […] All cultures were incubated at 37 °C under an atmosphere of 5% CO2. The assays” for “The assays”

[6] = system: Primary peritoneal mouse macrophages (PMM); assay: Cytotoxicity on primary peritoneal mouse macrophages; format: cell-based
[7] = Cytotoxicity on MRC-5 cells; format: cell-based; settings: MRC-5 SV2 human fetal lung fibroblasts; MRC-5 human fetal lung fibroblasts cytotoxicity
Protocol: as §3, with “Briefly, S. aureus and E. coli were cultured in MHT (Mueller Hinton Broth) and maintained on TSA (Tryptone Soy Agar). […] The T. b. brucei Squib 427 strain (suramine-sensitive) and T. b. rhodesiense STIB-900 strain were maintained in Hirumi’s Modified Iscove’s medium-9 (HMI-9) medium, supplemented with 10% inactivated fetal calf serum. […] All cultures were incubated at 37 °C under an atmosphere of 5% CO2. The assays” for “The assays”

[8] = Cytotoxicity on primary peritoneal mouse macrophages; format: cell-based; settings: primary peritoneal mouse macrophages (PMM)
[9] = Sequestering ability of MNZ (pL0.5) toward Cu2+; format: physicochemical; settings: toward Cu^2+, t = 37 °C, I = 0.15 mol L^–1, pH = 7.4
Excerpt: (§4) The tendency of a ligand to complex a free metal cation in solution to form metal–ligand species is expressed as the sequestering ability. To describe the sequestering ability of a ligand toward a certain metal cation, however, the mere knowledge of formation constants is not enough as it is necessary to consider all the possible interactions that both ligand and metal cation may have with all the species present in solution. In order to define it quantitatively, the empirical parameter pL0.5 was introduced, which represents the cologarithm of the ligand concentration necessary to sequester 50% of the metal cation in traces.[34],[35] The calculation is based on the following Boltzmann-type sigmoidal equation: [drawing 33] 3 where χ is the sum of molar fractions of the different complex species and pL is the cologarithm of the total ligand concentration.
(§5) A comparison between the sequestering ability of MNZ toward Zn^2, Cu^2+, and Ca^2+ (one of the main metal cations present in human body and previously studied in our recent work[30]) was evaluated under physiological conditions.

[10] = Sequestering ability of MNZ (pL0.5) toward Zn2+; format: physicochemical; settings: toward Zn^2+, t = 37 °C, I = 0.15 mol L^–1, pH = 7.4
Excerpt: as §4, §5

[11] = Sequestering ability of MNZ (pL0.5) toward Ca2+; format: physicochemical; settings: toward Ca^2+, t = 37 °C, I = 0.15 mol L^–1, pH = 7.4
Excerpt: as §4, §5

[12] = Trypanosoma cruzi, MRC5, 168 h, read-out: IC50
[13] = Staphylococcus aureus, read-out: IC50
[14] = Escherichia coli, read-out: IC50
[15] = Candida albicans, read-out: IC50
[16] = Trypanosoma brucei, 72 h, read-out: IC50
[17] = Leishmania infantum, read-out: IC50

Compound: O=C(Cn1ccnc1[N+](=O)[O-])NCc1ccccc1 [Benznidazol]
- IC50 [1, 12]: 0.43 µg/mL (≈ 1.65 µM)

Compound: [Cl][Cu][Cl] [Cu^2+]
- IC50 [1]: >2.42 µg/mL
- IC50 [2]: 0.75 µg/mL
- IC50 [3]: 0.94 µg/mL
- IC50 (Staphylococcus aureus): >2.42 µg/mL
- IC50 (Escherichia coli): >2.42 µg/mL
- IC50 [4]: >2.42 µg/mL
- IC50 (Candida albicans): >2.42 µg/mL
- IC50 (Aspergillus fumigatus): >2.42 µg/mL
- CC50 [5]: >2.42 µg/mL
- CC50 [6]: >2.42 µg/mL

Compound: C[C@H]1c2cccc(O)c2C(=O)C2=C(O)[C@]3(O)C(=O)C(C(N)=O)=C(O)[C@@H](N(C)C)[C@@H]3[C@@H](O)[C@@H]21 [Doxycycline]
- IC50 (Staphylococcus aureus; [13]): 0.08 µg/mL (≈ 0.18 µM)
- IC50 (Escherichia coli; [14]): 0.64 µg/mL (≈ 1.44 µM)

Compound: Nc1[nH]c(=O)ncc1F [Flucytosine]
- IC50 (Candida albicans; [15]): 0.51 µg/mL (≈ 3.95 µM)

Compound: Cc1ncc([N+](=O)[O-])n1CCO [MNZ(L), 2-methyl-5-nitro-1H-imidazole-1-ethanol]
- IC50 [1, 12]: > 5.64 µg/mL
- IC50 [2, 16]: > 5.64 µg/mL
- IC50 [3, 16]: > 5.64 µg/mL
- IC50 (Staphylococcus aureus; [13]): > 5.64 µg/mL
- IC50 (Escherichia coli; [14]): > 5.64 µg/mL
- IC50 [4, 17]: > 5.64 µg/mL
- IC50 (Candida albicans; [15]): > 5.64 µg/mL
- IC50 (Aspergillus fumigatus; Aspergillus fumigatus, read-out: IC50): > 5.64 µg/mL
- CC50 at 3 days [7]: > 5.64 µg/mL
- CC50 [8]: > 5.64 µg/mL
- pL0.5 [9]: 4.3
- pL0.5 [10]: 3.1
- pL0.5 [11]: 1.9

Compound: CCCCCCCCCCCCCCCCOP(=O)([O-])OCC[N+](C)(C)C [Miltefosine]
- IC50 [4, 17]: 2.05 µg/mL (≈ 5.03 µM)

Compound: Cc1ccc(C(=O)Nc2ccc(S(=O)(=O)O)c3cc(S(=O)(=O)O)cc(S(=O)(=O)O)c23)cc1NC(=O)c1cccc(NC(=O)Nc2cccc(C(=O)Nc3cc(C(=O)Nc4ccc(S(=O)(=O)O)c5cc(S(=O)(=O)O)cc(S(=O)(=O)O)c45)ccc3C)c2)c1 [Suramine]
- IC50 [2, 16]: 0.03 µg/mL (≈ 0.0231 µM)
- IC50 [3, 16]: 0.07 µg/mL (≈ 0.054 µM)

Compound: [Cl-].[Cl-].[Zn+2] [Zn^2+]
- IC50 [1]: >1.79 µg/mL
- IC50 [2]: >1.79 µg/mL
- IC50 [3]: >1.79 µg/mL
- IC50 (Staphylococcus aureus): >1.79 µg/mL
- IC50 (Escherichia coli): >1.79 µg/mL
- IC50 [4]: >1.79 µg/mL
- IC50 (Candida albicans): >1.79 µg/mL
- IC50 (Aspergillus fumigatus): >1.79 µg/mL
- CC50 [5]: >1.79 µg/mL
- CC50 [6]: >1.79 µg/mL
